Measurements taken from patent US11672804B1, “Pharmaceutical composition containing palbociclib and letrozole” (EGIS Gyógyszergyár Zrt., priority 2022, dated 2023).

How the values were obtained:
[1] = Compatibility tests of components, 1 month; assay type: physicochemical; conditions: for degradation of letrozole caused by PTSA: 1 months
Procedure: The compatibility test was performed at room temperature (25° C.), 40° C. under 75% RH and 50° C., for 1 months with the various components tested in proportion to the intended composition.

[2] = pH dependence; cited from earlier work

degradation of letrozole caused by PTSA ([1]; 25° C.) [%] | degradation of letrozole caused by PTSA ([1]; 40° C.) [%] | degradation of letrozole caused by PTSA ([1]; 50° C.) [%] | degradation of palbociclib base by PTSA ([1]; 25° C., 40° C. and 50° C., one month) | SMILES | solubility [2]
5 | 12 | 15 | – | N#Cc1ccc(C(c2ccc(C#N)cc2)n2cncn2)cc1 [letrozole, Letrozole] | –
– | – | – | did not induce degradation | CC(=O)c1c(C)c2cnc(Nc3ccc(N4CCNCC4)cn3)nc2n(C2CCCC2)c1=O [palbociclib base, Palbociclib] | soluble only in a strongly acidic medium
